# Reference: patent US8013153B2, “Substituted pyrimidine kinase inhibitors” (Janssen Pharmaceutica, N.V., priority 2006, dated 2011)
# Entries after “also recorded” stand apart in the source; their conditions may differ.
# How the values were obtained:
# CDK1:Cyclin-B = molecular target: T1, CDK1:Cyclin-B (Homo sapiens, UniProt P06493); test: CDK1 Screening Assay; format: biochemical
# T1 construct: purchased New England Biolabs, Beverly, Mass; 6020; host or cells: insect cells
# murine Aurora-A = molecular target: T2, murine Aurora-A (Mus musculus, UniProt P97477); test: Aurora-A Screening Assay; format: biochemical
# T2 construct: replaced with the full length protein encoding the murine Aurora-A; made in house; host or cells: sf9 insect cells
# T2 sequence (P97477 1-395): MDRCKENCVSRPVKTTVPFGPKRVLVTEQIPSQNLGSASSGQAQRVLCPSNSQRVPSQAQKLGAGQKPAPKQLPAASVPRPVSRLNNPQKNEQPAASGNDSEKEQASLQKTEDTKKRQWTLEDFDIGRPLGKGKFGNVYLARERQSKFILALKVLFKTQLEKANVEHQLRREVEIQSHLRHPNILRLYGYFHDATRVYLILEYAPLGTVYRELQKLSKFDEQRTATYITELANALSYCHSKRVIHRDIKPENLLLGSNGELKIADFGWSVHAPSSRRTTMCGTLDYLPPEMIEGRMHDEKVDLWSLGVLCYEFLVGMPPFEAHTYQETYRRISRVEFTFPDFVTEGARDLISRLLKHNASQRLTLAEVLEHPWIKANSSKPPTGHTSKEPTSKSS
# [1] = tested on: HeLa cervical adenocarcinoma; test: Inhibition of in vitro cell proliferation (HeLa); format: cell-based, human; conditions: Homo sapiens, 14C-thymidine incorporation;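 further: cells exposed to compound for 24 h, then labelled 24 h with methyl 14C-thymidine, with uptake into DNA counted by scintillation against DMSO-only control wells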
# HCT-116 colon carcinoma = test: Inhibition of in vitro cell proliferation (HCT116); format: cell-based, human; conditions: Homo sapiens, HCT-116, 14C-thymidine incorporation;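 further: cells exposed to compound for 24 h, then 14C-thymidine added for a further 24 h and its uptake into DNA counted by scintillation, DMSO-only wells as control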
# [2] = tested on: HCT116 human colorectal carcinoma; test: In vivo inhibition of tumor growth, HCT116 model; set-up: species or system athymic nude mice; conditions: 10 mg/kg daily, oral
# Source text: Female Nu/Nu˜nuBR athymic nude mice (obtained from Charles River Laboratories), at the age of 5-6 weeks were feed water and an irradiated standard rodent diet ad libitum, and housed in specific pathogen-free conditions, according to the guidelines of the American Association for Accreditation of Lab Animal Care (AALAC).
# Mice were implanted subcutaneously in the right hind flank with the various tumor cell suspensions in HBSS containing 10% FBS: A431 human epidermoid carcinoma (4×10^6 cells/mouse), HCT116 human colorectal carcinoma (4×10^6 cells/mouse) and A375 human skin melanoma (2×10^6 cells/mouse). […]
# The tumors were allowed to establish growth for 10 to 14 days. Tumor size was measured every 3 days. […]
# Tumor measurements and body weights were recorded individually (2×/week) during the treatment period of the experiment. Tumors were measured using a digital caliper. Data was recorded/calculated using Study Director software (StudyLog Systems, Inc.) and graphs were created in GraphPad Prizm.
# The volume of each tumor in an animal was calculated according to the formula: (D×d^2)/2, where the diameters were determined from two orthogonal measurements on each tumor. The mean tumor volume was determined by averaging all tumor volumes in each group. The mean body weight was determined by averaging all body weights in each group. […]
# tyrosine kinase KIT = tyrosine kinase KIT (Homo sapiens, UniProt P10721); test: KIT Kinase Screening Assay
# V600E Raf mutant = V600E Raf mutant (Homo sapiens, UniProt P15056, V600E); test: RAF Kinase Screening Assay (V600E Raf mutant); conditions: Compound 50 tested at 30 μM
# Chain of V600E Raf mutant (P15056 whole entry V600E): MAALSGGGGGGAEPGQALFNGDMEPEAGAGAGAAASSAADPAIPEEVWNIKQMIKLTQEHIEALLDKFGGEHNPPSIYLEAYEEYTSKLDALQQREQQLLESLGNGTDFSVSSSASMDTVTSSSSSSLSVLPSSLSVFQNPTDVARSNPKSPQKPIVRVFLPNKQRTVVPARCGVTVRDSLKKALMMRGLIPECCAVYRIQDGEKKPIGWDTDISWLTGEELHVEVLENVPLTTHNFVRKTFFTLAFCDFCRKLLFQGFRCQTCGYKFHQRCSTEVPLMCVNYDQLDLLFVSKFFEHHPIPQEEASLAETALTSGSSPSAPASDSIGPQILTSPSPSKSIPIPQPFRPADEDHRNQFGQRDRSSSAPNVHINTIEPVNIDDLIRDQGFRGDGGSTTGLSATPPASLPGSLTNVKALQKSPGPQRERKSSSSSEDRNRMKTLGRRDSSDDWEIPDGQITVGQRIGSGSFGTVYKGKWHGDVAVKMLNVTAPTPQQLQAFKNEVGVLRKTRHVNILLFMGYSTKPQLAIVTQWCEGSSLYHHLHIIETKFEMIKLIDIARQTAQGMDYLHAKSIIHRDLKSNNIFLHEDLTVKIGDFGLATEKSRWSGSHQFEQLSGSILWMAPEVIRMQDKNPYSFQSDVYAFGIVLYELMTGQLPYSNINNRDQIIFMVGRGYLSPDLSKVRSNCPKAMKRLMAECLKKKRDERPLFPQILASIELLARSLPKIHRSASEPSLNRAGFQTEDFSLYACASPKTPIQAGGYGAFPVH
# Chain of tyrosine kinase KIT (P10721 26-976): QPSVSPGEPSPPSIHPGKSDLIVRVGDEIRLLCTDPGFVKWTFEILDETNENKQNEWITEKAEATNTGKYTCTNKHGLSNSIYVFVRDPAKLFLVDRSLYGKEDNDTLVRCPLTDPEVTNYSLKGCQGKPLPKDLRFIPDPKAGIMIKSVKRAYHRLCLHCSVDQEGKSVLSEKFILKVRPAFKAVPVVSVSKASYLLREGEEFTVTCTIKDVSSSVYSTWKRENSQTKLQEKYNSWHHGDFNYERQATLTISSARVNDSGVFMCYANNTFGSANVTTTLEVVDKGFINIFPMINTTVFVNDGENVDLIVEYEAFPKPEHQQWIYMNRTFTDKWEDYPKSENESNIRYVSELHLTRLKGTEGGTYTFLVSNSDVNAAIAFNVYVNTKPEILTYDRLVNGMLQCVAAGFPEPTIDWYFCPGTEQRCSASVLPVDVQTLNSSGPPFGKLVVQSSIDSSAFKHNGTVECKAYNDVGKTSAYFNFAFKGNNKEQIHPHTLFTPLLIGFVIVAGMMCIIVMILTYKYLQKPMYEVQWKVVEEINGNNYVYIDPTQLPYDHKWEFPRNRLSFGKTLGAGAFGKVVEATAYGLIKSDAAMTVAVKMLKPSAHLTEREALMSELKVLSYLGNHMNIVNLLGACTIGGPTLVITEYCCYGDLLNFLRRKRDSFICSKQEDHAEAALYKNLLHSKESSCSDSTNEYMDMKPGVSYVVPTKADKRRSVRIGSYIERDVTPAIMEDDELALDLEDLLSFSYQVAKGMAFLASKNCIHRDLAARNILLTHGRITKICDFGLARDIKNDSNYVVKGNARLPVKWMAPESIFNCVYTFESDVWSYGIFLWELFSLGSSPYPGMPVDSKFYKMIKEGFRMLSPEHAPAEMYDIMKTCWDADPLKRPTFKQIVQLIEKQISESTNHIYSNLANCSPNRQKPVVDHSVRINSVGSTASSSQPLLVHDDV
# T1 sequence (P06493 whole entry): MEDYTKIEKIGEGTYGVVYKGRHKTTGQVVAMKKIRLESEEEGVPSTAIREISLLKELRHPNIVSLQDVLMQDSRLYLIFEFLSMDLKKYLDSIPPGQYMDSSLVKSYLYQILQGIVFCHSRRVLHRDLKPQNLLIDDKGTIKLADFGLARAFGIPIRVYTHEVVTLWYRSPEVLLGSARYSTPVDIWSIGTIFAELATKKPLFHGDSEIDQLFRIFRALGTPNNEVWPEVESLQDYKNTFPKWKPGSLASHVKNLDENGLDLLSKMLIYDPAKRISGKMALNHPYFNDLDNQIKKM
# T1 sequence (P14635 whole entry partner): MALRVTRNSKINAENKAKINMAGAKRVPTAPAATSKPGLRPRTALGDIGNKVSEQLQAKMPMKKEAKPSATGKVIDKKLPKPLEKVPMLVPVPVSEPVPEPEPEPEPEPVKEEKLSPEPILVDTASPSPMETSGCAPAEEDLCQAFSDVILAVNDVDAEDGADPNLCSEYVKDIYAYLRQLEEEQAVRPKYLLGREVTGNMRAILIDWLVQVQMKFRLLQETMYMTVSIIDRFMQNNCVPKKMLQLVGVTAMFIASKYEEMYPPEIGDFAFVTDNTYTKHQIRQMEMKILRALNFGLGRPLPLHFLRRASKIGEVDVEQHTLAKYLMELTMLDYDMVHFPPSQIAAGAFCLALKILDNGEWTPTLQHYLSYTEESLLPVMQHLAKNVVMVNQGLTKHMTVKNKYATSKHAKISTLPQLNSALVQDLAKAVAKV
smiles,measurement,setting,value
"CCNC(=O)Nc1ccc(Oc2ncnc(N)c2/C=N/OC)cc1Cl [Cpd 50, 1-{4-[6-amino-5-(methoxyimino-methyl)-pyrimidin-4-yloxy]-2-chloro-phenyl}-3-ethyl-urea]",IC50,CDK1:Cyclin-B,> 100 µM
same,IC50,murine Aurora-A,> 100 µM
same,IC50,[1],3.57 µM
same,IC50,HCT-116 colon carcinoma,3.7 µM
same,inhibition of tumor growth,[2],< 50%
same,IC50,tyrosine kinase KIT,0.5 µM
same,activity against the V600E Raf mutant,V600E Raf mutant,no activity; also recorded: not active
